From paper PMC3313490 (Current Cancer Drug Targets, 2011) come the findings set out here.

Test [1] deals with human neuroblastoma SH-SY5Y cells. The test can be described thus: Cell degeneration by microscopy images of treated cells. The test is classed as cell-based. As to conditions: 24 h exposure, up to 200 μM.
Test [2] has the same test system. The test is classed as cell-based. As to conditions: for EC50: read-out: EC50 cell viability.
Test [3] addresses T1, porcine liver PMPMEase (Sus scrofa, UniProt Q29550).
T1 sequence (Q29550 19-566): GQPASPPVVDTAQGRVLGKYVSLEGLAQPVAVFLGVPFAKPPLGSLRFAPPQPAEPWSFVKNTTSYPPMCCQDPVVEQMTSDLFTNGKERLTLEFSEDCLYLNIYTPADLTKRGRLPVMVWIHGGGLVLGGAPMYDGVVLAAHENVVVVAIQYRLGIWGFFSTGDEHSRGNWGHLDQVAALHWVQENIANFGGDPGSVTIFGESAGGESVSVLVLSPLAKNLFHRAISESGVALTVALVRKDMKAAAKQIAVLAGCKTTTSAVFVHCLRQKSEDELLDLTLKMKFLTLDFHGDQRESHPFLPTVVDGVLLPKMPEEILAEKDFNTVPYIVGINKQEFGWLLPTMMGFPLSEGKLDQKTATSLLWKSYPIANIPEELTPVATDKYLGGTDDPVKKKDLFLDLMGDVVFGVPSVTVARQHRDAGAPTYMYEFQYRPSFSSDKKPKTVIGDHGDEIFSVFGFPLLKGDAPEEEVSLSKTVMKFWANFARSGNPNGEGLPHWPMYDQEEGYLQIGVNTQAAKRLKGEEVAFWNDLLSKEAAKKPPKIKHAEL
As to conditions: for Kobs/[I]: PMPMEase 82.5 μg, pre-incubation 0-30 min, 100-fold dilution, RD-PNB substrate.

The target of test [4] is T1, porcine liver PMPMEase. As to conditions: for IC50: PMPMEase 1 μg, 15 min pre-incubation at 37°C, RD-PNB substrate.

Like-named read-outs stand apart in the source and are kept apart here. A value given as a limit tells only on which side of the number the result lay.

Regarding “2-trans-Geranylthioethanesulfonyl fluoride [Compound L-23]”, the “Cell degeneration observed” value in test [1] is recorded as “extensive degeneration”. In test [2], the concentration for a half-maximal effect (EC50) (commonly the concentration needed to bring the measured effect to its halfway point) is 144 µM. For the same compound, in test [3], the “Kobs/[I]” value turned out to be 4100 M⁻¹ s⁻¹ and the “Kobs/[I] fold higher relative to PMSF” value is recorded as “over 680 fold”. In addition, the “IC50 fold lower relative to PMSF” value in test [4] is reported as 56 fold.

For `CC(C)=CCC/C(C)=C/CC/C(C)=C/CSCCS(=O)(=O)F` [Compound L-28, 2-trans, trans-Farnesylthioethanesulfonyl fluoride], the “Cell degeneration observed” value in test [1] is “extensive degeneration”. Also, the EC50 in test [2] (24 h exposure, serum-free DMEM/F12) was found to be 66.5 µM. In test [2] (48 h exposure, serum-free DMEM/F12), the half-maximal effective concentration (EC50) was 24.3 µM. The EC50 in test [2] (72 h exposure, serum-free DMEM/F12) turned out to be 13.6 µM. In test [3], the “Kobs/[I]” value stood at 2000 M⁻¹ s⁻¹ and the “Kobs/[I] fold higher relative to PMSF” value is given as more than 330 fold. Moreover, in test [4], the IC50 (in general, the concentration that gives 50% inhibition) came out at 0.048 µM and the “IC50 fold lower relative to PMSF” value was 37 fold.

Take `O=S(=O)(F)CCSc1ccccc1` [Compound L-50, Phenylthioethanesulfonyl fluoride]: in test [3], the “Kobs/[I]” value was 180 M⁻¹ s⁻¹. Besides, the IC50 in test [4] came out at 0.066 µM.

For `O=S(=O)(F)CCSCc1ccccc1` [Compound L-51, Benzylthioethanesulfonyl fluoride], the “Kobs/[I]” value in test [3] turned out to be 350 M⁻¹ s⁻¹. Further, in test [3] (relative to L-28), the “Kobs/[I] fold lower than that for L-28” value is “over 5 fold”. 0.047 µM corresponded to half-maximal inhibition in test [4] (IC50).

`CCCCCCCCCCSCCS(=O)(=O)F` [Compound L-52, Decanylthioethanesulfonyl fluoride]: the “Kobs/[I]” value in test [3] was 1800 M⁻¹ s⁻¹. For the same compound, half-maximal inhibition in test [4] (IC50) was put at 0.13 µM.

With `O=S(=O)(F)Cc1ccccc1` [PMSF, phenylmethylsulfonyl fluoride, reference compound], in test [1], the “Cell degeneration observed” value is “did not show degeneration even at 200 μM”. For the same compound, the “Effect on viability of cultured cells” value in test [2] (24 h exposure) is reported as “no significant effect”.
